Measured values as given in US20220395553A1, “CXCR4 ANTAGONIST PEPTIDES” (COHBAR, INC., priority 2019, published 2022).
Square brackets hold non-standard residues; d marks the D form. Ends that are not written are not given here.

How the values were obtained:
[1] = Cell viability, PrestoBlue assay; type: cell-based; details: human; read-out: Cell viability, % of background corrected DMSO control value
Procedure: The effect of the peptides on cell viability can be assessed in cultured cells using suitable assay of viability such as the PrestoBlue® assay (Thermo Fisher Scientific, Waltham, Mass.). Peptides were initially prepared as 10 mM stock in DMSO and tested at a final concentration of 10 μM (0.1% DMSO). […] PrestoBlue Assay Reagent was purchased from Thermo Fisher Scientific. A172 human brain glioblastoma cell line was purchased from American Type Culture Collection (Manassas, Va.). A172 cells were grown in DMEM supplemented with 10% FBS with 100 IU/ml penicillin and 100 μg/ml streptomycin. Cultures were maintained at 37° C. in a humidified atmosphere of 5% CO2/95% air. A172 cells were seeded at 8,000 cells per well on 96-well plates. […] Cell viability was determined using a PrestoBlue Assay reagent […] according to the manufacturer's instructions. Absorption for each sample well on the plate was measured using a Cytation 3 plate reader at 560 nm and 590 nm (BioTek, Winooski, Vt.). Activity was calculated relative to 0.1% DMSO untreated control. Treatment with 0.1% DMSO alone was used as the cell viability activity control. The relative standard deviation of the DMSO control was <5%.

[2] = test system: SH-SY5Y Neuroblastoma Cells; assay: ATP levels (CellTiter-Glo); type: cell-based, human; details: staurosporine 1 μM
Procedure: The effect of the peptides on cellular metabolism can be assessed using an assay of ATP levels in cultured cells such as human neuroblastoma cells. Peptides were initially prepared as 10 mM stock in DMSO and used at a final concentration of 10 μM (0.1% DMSO). […] CellTiter-Glo® Assay kit was purchased from Promega. SH-SY5Y human bone marrow neuroblastoma cell line was purchased from American Type Culture Collection (Manassas, Va.) and licensed from Memorial Sloan-Kettering Cancer Center (New York, N.Y.). SH-SY5Y cells were grown in DMEM/F12 medium supplemented with 10% FBS with 100 IU/ml penicillin and 100 μg/ml streptomycin. Cultures were maintained at 37° C. in a humidified atmosphere of 5% CO2/95% air. SH-SY5Y cells were seeded at 30,000 cells per well on 96-well plates. […] ATP levels were determined using a CellTiter-Glo Assay kit (Promega) according to the manufacturer's instructions. Luminescence for each sample well on the plate was measured using a Cytation 3 plate reader (BioTek, Winooski, Vt.). Activity was calculated relative to 0.1% DMSO treated control. The relative standard deviation of the result for the 0.1% DMSO treated control was <5%.

Rat H-4-II-E Cells = assay: TBHP-induced reactive oxygen species (DCFDA); type: cell-based; details: sulforaphane 10 uM
Procedure: The protective or synergistic effect of the peptides on cellular levels of reactive oxygen species (ROS) induced by oxidative stress can be assessed using an assay of ROS in cultured cells exposed to a suitable oxidative stress. Peptides were initially prepared as 10 mM stock in DMSO and tested at a final concentration of 10 μM (0.1% DMSO). […] TBHP was used at final concentration of […]. Sulforaphane was used at a final concentration of 10 uM as a protective antioxidant control against TBHP induced ROS production. DCFDA Cellular ROS Detection Assay kit was purchased from […]. H-4-II-E rat liver hepatoma cell line was purchased from American Type Culture Collection (Manassas, Va.). H-4-II-E cells were grown in DMEM supplemented with 10% FBS with 100 IU/ml penicillin and 100 μg/ml streptomycin. Cultures were maintained at 37° C. in a humidified atmosphere of 5% CO2/95% air. H-4-II-E cells were seeded at 15,000-20,000 cells per well on 96-well plates. The next day cells were incubated with test peptides at 10 μM in 0.1% DMSO or sulforaphane at 10 uM and maintained at 37° C. in a humidified atmosphere of 5% CO2/95% air for 18-20 hours. After 18-20 hours of incubation the cells were loaded with DCFDA for 45 min. TBHP at 100 μM was then added to the appropriate wells for 1 hour. ROS activity was determined using a DCFDA Cellular ROS Detection Assay kit (Abcam) according to the manufacturer's instructions. Fluorescence in each sample well on the plate was measured using a Cytation 3 plate reader at Ex/Em=485/535 nm (BioTek, Winooski, Vt.). Activity was calculated relative to TBHP control. […] Activity was calculated relative to THBP treated control.

3T3-L1 Mouse Adipocytes = assay: Free fatty acid levels in cultured mouse adipocytes; type: cell-based; details: insulin 100 nM
Procedure: The effect of the peptides on fatty acid metabolism can be assessed using an assay of free fatty acid levels in cultured cells such as mouse adipocytes. Peptides were initially prepared as 10 mM stock in DMSO and used at a final concentration of 10 μM (0.1% DMSO). […] Mouse 3T3-L1 cells purchased from ZenBio were seeded at 3,000 cells per well in 96-well plates in Pre-adipocyte Medium (Zen-Bio) and grown to confluence at 37° C. in a humidified atmosphere of 5% CO2/95% air. Two days after confluence, cells were placed in Adipocyte Differentiation Medium (Zen-Bio) and cultured for three additional days at 37° C. in a humidified atmosphere of 5% CO2/95% air. The culture media was then replaced with Adipocyte Maintenance Medium (Zen-Bio) and the cells maintained for an additional 9-12 days at 37° C. in a humidified atmosphere of 5% CO2/95% air with partial medium replacement every other day. Following 12-15 days of differentiation, test peptides were added at a final concentration of 10 μM in 0.1% DMSO and incubated for 20-22 hours in Adipocyte Maintenance Medium at 37° C. in a humidified atmosphere of 5% CO2/95% air. After 20-22 hours, 1 nM isoproterenol was added to all wells except untreated controls and test peptides were replenished. Insulin at 100 nM was added to control wells. Cells were incubated for 3 hours in Assay Buffer (Zen-Bio) at 37° C. in a humidified atmosphere of 5% CO2/95% air. Free fatty acid concentrations in the media were determined using a Free Fatty Acid Assay kit (Zen-Bio) according to the manufacturer's instructions using a Cytation 3 plate reader at 540 nm (BioTek, Winooski, Vt.). Absorbance values were corrected for untreated background and expressed relative to isoproterenol treated cells. Treatment with isoproterenol (1 nM) alone was used as the free fatty acid level stimulatory control. The relative standard deviation of the isoproterenol control was <10%. […] Free fatty acid levels for insulin (100 nM) treatment were <5% of the isoproterenol control value.

C2C12 Mouse Myoblasts = assay: Glucose utilization in C2C12 mouse myoblasts; type: cell-based; details: metformin 1 mM
Procedure: The effect of the peptides on glucose metabolism can be assessed using an assay of glucose utilization in cultured cultured cells such as mouse myoblasts. Peptides were initially prepared as 10 mM stock in DMSO and used at a final concentration of 10 μM (0.1% DMSO). C2C12 mouse myoblast cell line was purchased from American Type Culture Collection (Manassas, Va.). C2C12 cultures were maintained at 37° C. in a humidified atmosphere of 5% CO2/95% air with medium changes every second day. C2C12 cells were grown in DMEM (1 g/L glucose) supplemented with 10% FBS with 100 IU/ml penicillin and 100 μg/ml streptomycin. C2C12 cells were seeded at 7,000 cells per well on 96-well plates and cultured to confluence. Once the cell reached confluence the media was changed to DMEM (1 g/L glucose) supplemented with 2% HS with 100 IU/ml penicillin and 100 μg/ml streptomycin and maintained at 37° C. in a humidified atmosphere of 5% CO2/95% air, 5 days post-induction of differentiation fresh DMEM (1 g/L glucose) supplemented with 2% HS with 100 IU/ml penicillin and 100 μg/ml streptomycin was added to cultures. Cells were maintained at 37° C. in a humidified atmosphere of 5% CO2 and 95% air for 5 hours. After 5 hours test peptides at 10 μM or controls (0.5 mM or 1 mM metformin in 1% DMSO) prepared in fresh differentiation medium were added to cells and the cultures were maintained at 37° C. in a humidified atmosphere of 5% CO2/95% air for 18-22 hours. At the end of the incubation culture media was removed from the cells and the remaining glucose concentration was measured using a Glucose Assay kit (Abcam) according to the manufacturer's instructions, using a Cytation 3 plate reader at 570 nm (BioTek, Winooski, Vt.). Glucose concentrations in the medium were calculated relative to 0.1% DMSO treated control cells. The relative standard deviation of the result for the 0.1% DMSO treated control was <20%. Metformin was used as a positive control for reduction of glucose levels (increased glucose utilization glucose levels for treatment with metformin (1 mM) treatment were <20% of the 0.1% DMSO treated control value. The results are reported in Table 7.

[3] = test system: B16F10, mouse melanoma cell line; assay: Tumor growth in B16F10 syngeneic mouse cancer model; type: in vivo; details: peptide 10 mg/kg QD subcutaneous, temozolomide 50 mg/kg TIW oral gavage; for Mean (SEM) Percent Reduction in Tumor Volume vs Control: Day 11, relative to vehicle control; for Mean (SEM) Tumor Volume on Day 11: female C57Bl/6 mice, 8-10 animals per arm
Procedure: The effect of the peptides on tumor growth can be assessed by monitoring tumor volume in a syngeneic mouse cancer model, such as B16F10, mouse melanoma cell line. The study was performed by HD Biosciences/WuXi (San Diego, Calif.). B16F10 cells were expanded in culture for a maximum of five passages prior to implantation, until growing exponentially when harvested. On Day 0, B16F10 cells (0.2×10^6 cells in […] serum free media; >95% viable tumor cells) were implanted into the right hind flank of female C57Bl/6 mice. When a mean tumor volume of approximately 100 mm^3 (range 75-125 mm^3) was reached, tumor-bearing animals were randomized and treatments were initiated on the same day. Test peptides were resuspended in phosphate buffered saline (PBS) and administered once daily (QD) by subcutaneous injection at 10 mg/kg in 5.0 ml/kg vehicle. Vehicle (PBS) was administered QD by intraperitoneal injection in 5 ml/kg. Temozolomide was administered three times per week (TIW) by oral gavage at 50 mg/kg in 5.0 ml/kg vehicle. Animals were inspected daily over the course of 11 days for abnormalities. Tumor volumes were determined by calliper measurements twice per week and calculated according to the formula: V (mm^3)=W^2×L/2 (L=length and W=the perpendicular width of the tumor, L>W). Data are presented as the mean (SEM) of 8-10 animals per arm for tumor volume on Day 11 and percent decrease in tumor volume relative to vehicle control treatment. Treatment with a combination of test peptide and temozolomide produced a greater reduction in tumor volume compared to either vehicle control treatment or treatment with temozolomide alone.

Compound	Mean (SEM) Percent Reduction in Tumor Volume vs Control [3]	Mean (SEM) Tumor Volume on Day 11 [3]	further results
CN[C@@H]1C[C@H]2O[C@@](C)([C@@H]1OC)n1c3ccccc3c3c4c(c5c6ccccc6n2c5c31)C(=O)NC4 [staurosporine, Staurosporine, reference compound]	–	–	viability at 1 µM [1]: < 75%; ATP levels, % of 0.1% DMSO treated control value [2]: < 5%
C[S+]([O-])CCCCN=C=S (centres unmarked) [sulphorophane, Sulforaphane, reference compound]	–	–	ROS levels, % of the THBP-induced ROS level (Rat H-4-II-E Cells): 45.5%
Insulin [reference compound]	–	–	Free fatty acid levels, % of isoproterenol control value (3T3-L1 Mouse Adipocytes): < 5%
CN(C)C(=N)N=C(N)N [metformin, Metformin, reference compound]	–	–	Glucose levels, % of 0.1% DMSO treated control value (C2C12 Mouse Myoblasts): < 20%
LERYHHS(dA)RSSLRPYT (LERYHHS[dA]RSSLRPYT) [SEQ ID NO: 5]	7.2%	1770 mm^3	–
LERYHHSVRSSLRPYTK (LERYHHSVRSSLRPYTK-NH2) [SEQ ID NO: 4]	14.9%	1620 mm^3	–
Cn1nnc2c(C(N)=O)ncn2c1=O [Temozolomide, reference compound]	37.9%	1190 mm^3	–
